Data: PubChem BioAssay (NCI)
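Exposure lasted 48 hours, with cells grown in 96-well plates and compounds tested at five concentrations. Here, GI50 denotes the concentration required for 50% inhibition of growth. TGI: concentration producing complete growth inhibition.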 Where a SMILES comes first, the peptide text is derived from it. The star is where a group is joined. Palmitoyl = CCCCCCCCCCCCCCCC(=O)*

What was measured:
Assay in all cases: NCI tumour cell line growth inhibition, 48 h
MOLT-4 leukemia = tested on: MOLT-4 leukemia
HT29 colon = tested on: HT29 colon
SNB-75 CNS = tested on: SNB-75 CNS
DU-145 prostate = tested on: DU-145 prostate
OVCAR-4 ovarian = tested on: OVCAR-4 ovarian
HCC-2998 colon = tested on: HCC-2998 colon
HCT-116 colon = tested on: HCT-116 colon
NCI-H460 lung = tested on: NCI-H460 lung
PC-3 prostate = tested on: PC-3 prostate
MDA-N = tested on: MDA-N

Structure (SMILES)	GI50 (MOLT-4 leukemia) [µM]	TGI (MOLT-4 leukemia) [µM]	GI50 (HT29 colon) [µM]	TGI (HT29 colon) [µM]	GI50 (SNB-75 CNS) [µM]	TGI (SNB-75 CNS) [µM]	GI50 (DU-145 prostate) [µM]	TGI (DU-145 prostate) [µM]	GI50 (OVCAR-4 ovarian) [µM]	TGI (OVCAR-4 ovarian) [µM]	GI50 (HCC-2998 colon) [µM]	TGI (HCC-2998 colon) [µM]	GI50 (HCT-116 colon) [µM]	TGI (HCT-116 colon) [µM]	GI50 (NCI-H460 lung) [µM]	TGI (NCI-H460 lung) [µM]	TGI (PC-3 prostate) [µM]	TGI (MDA-N) [µM]
CCCCCCCCCCCCCCCC(=O)N1CCCC1C(=O)NCC(=O)NC(Cc1ccccc1)C(=O)N1CCCC1C(=O)NC(CO)C(=O)NC(Cc1ccc(O)cc1)C(=O)NC(CCCCN)C(=O)NC(CC(C)C)C(=O)NC(CCCN=C(N)N)C(=O)N1CCCC1C(=O)NCC(N)=O (stereo not drawn) (Palmitoyl-PGFPSYKLRPG-NH2; configuration not given here)	18.6	37.7	15.8	29.3	21.7	49.3	18.3	39.9	30.1	81.8	10.4	24.1	14.8	31.9	19.4	41.2		
O=C(OCC(Cl)(Cl)Cl)N1CC[C@H](C2CCCCC2)C1		50.5				35.9		31.8		31.2		34.3		31.6		35.1	48.7	> 100
COc1cc(Nc2ccc3c(c2)CCC3)nc(OC)n1				51.4		53.5		> 100		> 100		61.6		> 100		> 100	> 100	> 100
Cc1ccsc1/C=N/Nc1cnccn1		> 100		> 100		> 100		> 100		> 100		> 100		> 100			> 100	
CC1=C(C#N)c2nc3ccccc3n2C(=O)C1(C)CCO (stereo not drawn)				> 100		> 100		> 100		> 100		> 100		> 100		> 100	> 100	> 100
CCOC(=O)/C=C1/C(CCCOCc2ccccc2)C2CCCC23CC2(CCN13)OCCO2 (stereo not drawn)		33.2		45.4		9.41				> 100		> 100				47.1		
Nc1c(S(=O)(=O)c2ccc(Cl)cc2)c2nc3ccccc3nc2n2ccnc12		> 100		> 100		93.2				33.3		> 100		> 100		> 100		
CN1Cc2c(nc(-c3ccccc3)c[n+]2[O-])N(C)C1		> 100		> 100		> 100				> 100		> 100				> 100		
COc1ccc(CC(N)=O)cc1OC		> 1250		> 1250		> 1250				> 1250		> 1250		> 1250		> 1250		
CN(C)Cc1cc(C(=O)/C=C/c2ccc([N+](=O)[O-])cc2)cc(CN(C)C)c1O		51.2		25		33.3		23				32.5		13.1			33.9	24.7
O=C(CN1C(=O)CC(c2ccccc2)(c2ccccc2)C1=O)N1CCN(CCO)CC1		> 100		> 100		> 100		> 100		> 100		> 100		> 100			> 100	
CCN(CC)c1ccc(/C=C/c2ccnc3ccccc23)cc1				> 100		> 100		> 100		> 100		> 100		> 100		> 100	> 100	> 100
Nc1ncc2c(n1)-c1ccccc1OC2N1CCCC1 (stereo not drawn)		> 100		> 100		> 100		> 100		> 100				> 100		> 100	> 100	> 100
C=C(CN(C)C)C(=O)c1ccc(C(=O)C(=C)CN(C)C)cc1		> 100		> 100		> 100		> 100		> 100		> 100		> 100		> 100		
CC1(C)C=CC(=O)C(O)C(C)(C)C1=O (stereo not drawn)		69.7		> 100		> 100		> 100		> 100				> 100		> 100	> 100	> 100
CO/N=C(/C(=O)OC)c1ccccc1COc1ccccc1C(F)(F)F		> 100		> 100				> 100		57.9		> 100		> 100		> 100	> 100	> 100
CNc1[nH]c(=S)nc2sc3c(c12)CCCC3		> 75		> 75		> 75		> 75		> 75		> 75		> 75			> 75	
O[C@H]1[C@H](O)[C@@H](O)CN2CC[C@H](O)[C@H]12		> 100		> 100		> 100				> 100		> 100		> 100		> 100		
Cc1cc(C)nc(NC(=S)Nc2ccc([N+](=O)[O-])cc2)c1		> 100		> 100		> 100		> 100		> 100		> 100		> 100		> 100	> 100	
O=C(NCCCl)O/N=C/c1cccnc1		> 100		> 100	> 100	> 100				> 100		> 100		> 100		> 100		
O=C(c1ccccc1)c1ccc2c(c1)NC(=O)c1ccccc1SSc1ccccc1C(=O)N2		> 100		> 100				> 100		> 100				> 100		> 100	> 100	> 100
Cc1nc2ccccc2c(-n2cccn2)c1CCn1cccn1		> 100		> 100				> 100		> 100		> 100		> 100		> 100	> 100	> 100
CC12c3c4ccc(C=O)c3Oc3ccc(C=O)c(c31)Oc1ccc(C=O)c(c12)O4		> 25		> 25		> 25		> 25		> 25				> 25		> 25	> 25	> 25
CN1CCN(Cc2cc3c(nn2)-c2ccccc2C3=O)CC1		> 100		> 100		> 100		> 100						> 100		> 100	> 100	52.3
